Measurements from patent publication US20040127446A1 (priority 1992, published 2004).
[invAb] = 3' inverted deoxyabasic cap; [2NH2-N] = 2'-deoxy-2'-amino ribonucleotide (N: the base); [amino-N] = 2'-deoxy-2'-amino nucleotide (N: the base); [I] = hypoxanthine (inosine); m = 2'-O-methyl; r = 2'-OH (RNA)

system: plus strand HCV RNA; assay type: biochemical, Hepatitis C virus; settings: plus strand (+) HCV site, 50 mM Tris-Cl, pH 8.0, 40 mM Mg2+ at 37°, trace substrate, enzymatic nucleic acid concentration of 500 nM or greater

Substance	% Substrate Cleaved in 3 hours [%]
22723 (ACAGGUUUGAUGGCAUGCACUAUGCGCGAACUCGU; sugars from the 5' end mmmmmmmmrrrmmmmmrmmmmmmmmmrmmmmmmmm, [invAb] at 3' end, backbone not given here) [compound 22723]	61.58

system: minus strand HCV RNA; assay type: biochemical, Hepatitis C virus; settings: minus strand (−) HCV site, 50 mM Tris-Cl, pH 8.0, 40 mM Mg2+ at 37°, trace substrate, enzymatic nucleic acid concentration of 500 nM or greater

Substance	% Substrate Cleaved in 3 hours [%]
22753 (UGGAAGAGCCGAAAGGCGAGUGAGGUCUACUGAGA; 2'-O-methyl at 1, 2, 3, 4, 5, 6, 7, 8, 9, 10, 11, 12, 13, 14, 15, 16, [2NH2-N] at 17, 27, [invAb] at 3' end, other sugars and backbone not given here) [compound 22753]	89.39
22755 (CGAAGCAGCCGAAAGGCGAGUGAGGUCUAUGUGGA; 2'-O-methyl at 1, 2, 3, 4, 5, 6, 7, 8, 9, 10, 11, 12, 13, 14, 15, 16, [2NH2-N] at 17, 27, [invAb] at 3' end, other sugars and backbone not given here) [compound 22755]	81.10
22725 (GGAAAAGUGAUGGCAUGCACUAUGCGCGAACAGGA; sugars from the 5' end mmmmmmmmrrrmmmmmrmmmmmmmmmrmmmmmmmm, [invAb] at 3' end, backbone not given here) [compound 22725]	94.66
22756 (UGGAAGAGCCGAAAGGCGAGUGAGGUCUGGCGUGA; 2'-O-methyl at 1, 2, 3, 4, 5, 6, 7, 8, 9, 10, 11, 12, 13, 14, 15, 16, [2NH2-N] at 17, 27, [invAb] at 3' end, other sugars and backbone not given here) [compound 22756]	73.47
22949 (GCUGGAACUGAUGAGGCCGUUAGGCCGAAACACUGA; 2'-O-methyl at 1, 2, 3, 4, 5, 6, 7, 15, 16, 17, 18, 19, 20, 21, 22, 23, 24, 25, 26, 31, 32, 33, 34, 35, 36, [invAb] at 3' end, other sugars and backbone not given here) [compound 22949]	89.16
22976 (AAGAGGAGGCTAGCTACAACGAGCGGCGAN; 3' inverted abasic cap (B); Description of Artificial Sequence: Nucleic Acid; misc_feature (30)..(30): n stands for inverted deoxyabasic derivative; misc_feature (1)..(7): 2'-O-Methyl; misc_feature (23)..(29): 2'-O-Methyl) [compound 22976]	66.06
22728 (GGUAGGUUGAUGGCAUGCACUAUGCGCGAAGUGGC; sugars from the 5' end mmmmmmmmrrrmmmmmrmmmmmmmmmrmmmmmmmm, [invAb] at 3' end, backbone not given here) [compound 22728]	81.06
22782 (GGAUGAGCUGAUGAGGCCGUUAGGCCGAANAGAGGU; 2'-O-methyl at 1, 2, 3, 4, 5, 6, 7, 15, 16, 17, 18, 19, 20, 21, 22, 23, 24, 25, 26, 31, 32, 33, 34, 35, 36, [I] at 30, [invAb] at 3' end, other sugars and backbone not given here) [compound 22782]	78.83
22752 (AAGAGGAGCCGAAAGGCGAGUGAGGUCUGCGGCGA; 2'-O-methyl at 1, 2, 3, 4, 5, 6, 7, 8, 9, 10, 11, 12, 13, 14, 15, 16, [amino-N] at 17, 27, [invAb] at 3' end, other sugars and backbone not given here) [compound 22752]	27.83
22950 (AGGAUGACUGAUGAGGCCGUUAGGCCGAAAGAGAGG; 2'-O-methyl at 1, 2, 3, 4, 5, 6, 7, 15, 16, 17, 18, 19, 20, 21, 22, 23, 24, 25, 26, 31, 32, 33, 34, 35, 36, [invAb] at 3' end, other sugars and backbone not given here) [compound 22950]	83.43
22980 (GUUGUGAGGCTAGCTACAACGAUUGGAGGN; 3' inverted abasic cap (B); Description of Artificial Sequence: Nucleic Acid; misc_feature (30)..(30): n stands for inverted deoxyabasic derivative; misc_feature (1)..(7): 2'-O-Methyl; misc_feature (23)..(29): 2'-O-Methyl) [compound 22980]	34.60
22727 (GGACGAGUGAUGGCAUGCACUAUGCGCGACUUUGU; sugars from the 5' end mmmmmmmmrrrmmmmmrmmmmmmmmmrmmmmmmmm, [invAb] at 3' end, backbone not given here) [compound 22727]	67.20
22724 (GGAUGGUUGAUGGCAUGCACUAUGCGCGAGACAGG; sugars from the 5' end mmmmmmmmrrrmmmmmrmmmmmmmmmrmmmmmmmm, [invAb] at 3' end, backbone not given here) [compound 22724]	65.16
22951 (UGAGGAGCUGAUGAGGCCGUUAGGCCGAAACGUGGA; 2'-O-methyl at 1, 2, 3, 4, 5, 6, 7, 15, 16, 17, 18, 19, 20, 21, 22, 23, 24, 25, 26, 31, 32, 33, 34, 35, 36, [invAb] at 3' end, other sugars and backbone not given here) [compound 22951]	83.25
22977 (AAGGAGAGGCTAGCTACAACGAGAAGGCGN; 3' inverted abasic cap (B); Description of Artificial Sequence: Nucleic Acid; misc_feature (30)..(30): n stands for inverted deoxyabasic derivative; misc_feature (1)..(7): 2'-O-Methyl; misc_feature (23)..(29): 2'-O-Methyl) [compound 22977]	71.28
22978 (AGGAGGAGGCTAGCTACAACGAGAGAGAGN; 3' inverted abasic cap (B); Description of Artificial Sequence: Nucleic Acid; misc_feature (1)..(7): 2'-O-Methyl; misc_feature (23)..(29): 2'-O-Methyl; misc_feature (30)..(30): n stands for inverted deoxyabasic derivative) [compound 22978]	61.60
22948 (GCGAGCCCUGAUGAGGCCGUUAGGCCGAAACGAGUC; 2'-O-methyl at 1, 2, 3, 4, 5, 6, 7, 15, 16, 17, 18, 19, 20, 21, 22, 23, 24, 25, 26, 31, 32, 33, 34, 35, 36, [invAb] at 3' end, other sugars and backbone not given here) [compound 22948]	88.34
22784 (UGGAUGACUGAUGAGGCCGUUAGGCCGAANCUGUUG; 2'-O-methyl at 1, 2, 3, 4, 5, 6, 7, 15, 16, 17, 18, 19, 20, 21, 22, 23, 24, 25, 26, 31, 32, 33, 34, 35, 36, [I] at 30, [invAb] at 3' end, other sugars and backbone not given here) [compound 22784]	90.41
22780 (GACACUGCUGAUGAGGCCGUUAGGCCGAANACACCA; ribozyme; 2'-O-methyl at 1, 2, 3, 4, 5, 6, 7, 15, 16, 17, 18, 19, 20, 21, 22, 23, 24, 25, 26, 31, 32, 33, 34, 35, 36, [I] at 30, [invAb] at 3' end, other sugars and backbone not given here) [compound 22780]	87.33
22783 (UGUGCAGCUGAUGAGGCCGUUAGGCCGAANGAUGAA; 2'-O-methyl at 1, 2, 3, 4, 5, 6, 7, 15, 16, 17, 18, 19, 20, 21, 22, 23, 24, 25, 26, 31, 32, 33, 34, 35, 36, [I] at 30, [invAb] at 3' end, other sugars and backbone not given here) [compound 22783]	86.93
22754 (AGGAGUAGCCGAAAGGCGAGUGAGGUCUGUGGAGG; 2'-O-methyl at 1, 2, 3, 4, 5, 6, 7, 8, 9, 10, 11, 12, 13, 14, 15, 16, [2NH2-N] at 17, 27, [invAb] at 3' end, other sugars and backbone not given here) [compound 22754]	50.40
22952 (GACUGGACUGAUGAGGCCGUUAGGCCGAAAUGCACG; 2'-O-methyl at 1, 2, 3, 4, 5, 6, 7, 15, 16, 17, 18, 19, 20, 21, 22, 23, 24, 25, 26, 31, 32, 33, 34, 35, 36, [invAb] at 3' end, other sugars and backbone not given here) [compound 22952]	86.96
22979 (AGGAGUAGGCTAGCTACAACGAGUGGAGGN; 3' inverted abasic cap (B); Description of Artificial Sequence: Nucleic Acid; misc_feature (30)..(30): n stands for inverted deoxyabasic derivative; misc_feature (1)..(7): 2'-O-Methyl; misc_feature (23)..(29): 2'-O-Methyl) [compound 22979]	85.53
22781 (GAGAUGACUGAUGAGGCCGUUAGGCCGAANGCGAAG; 2'-O-methyl at 1, 2, 3, 4, 5, 6, 7, 15, 16, 17, 18, 19, 20, 21, 22, 23, 24, 25, 26, 31, 32, 33, 34, 35, 36, [I] at 30, [invAb] at 3' end, other sugars and backbone not given here) [compound 22781]	70.67
22726 (AGAAGAAUGAUGGCAUGCACUAUGCGCGACGAGGA; sugars from the 5' end mmmmmmmmrrrmmmmmrmmmmmmmmmrmmmmmmmm, [invAb] at 3' end, backbone not given here) [compound 22726]	82.14
